Test results: patent US9504676B2, “Molecules inhibiting a metabolic pathway involving the Syk protein tyrosine kinase and method for identifying said molecules” (CENTRE NATIONAL DE LA RECHERCHE SCIENTIFIQUE, priority 2008, dated 2016)

Test system: PLC-γ with LAT
Test: Association of PLC-γ with LAT (immunoprecipitation)
Type: cell-based, rat
Conditions: dose-dependent
Method: Binding of Btk and Vav with SLP-76 is critical for regulating PLC-γ activity on the membrane, calcium mobilisation and granule exocytosis^27, 28.
• 1) Chemical products and antibodies. A chemical bank of 3000 molecules (a varied subset) was acquired from ChemBridge, Inc. (San Diego, Calif.). Stocks of solutions of small molecules were prepared at a rate of 10 mM in DMSO (dimethylsulphoxide), except for C-13 (methyl 2-{5-[(3-benzyl-4-oxo-2-thioxo-1,3-thiazolidin-5-ylidene)methyl]-2-furyl}benzoate, ChemBridge ID No. 6197026) prepared in DMF (dimethylformamide). Unless specified otherwise, all the reagents were supplied by Sigma. Dinitrophenyl (DNP) hapten was acquired from Calbiochem. […] The binding of G4G11 with Syk was assessed by adding the 9E10 monoclonal antibody conjugated with HRP detecting the amino acid sequence EQKLISEEDLN of human c-myc protein located at the C-terminal end of the scFv fragment. To generate Syk mutants, targeted mutagenesis was used on GST:Syk 6-242 protein and the binding of G4G11 with the mutants was assessed in the presence of 5 μM of C-13. • 3) Cells, culture conditions and functional tests. […] The level of β-hexosaminidase released was measured 10 min later and the TNF-α titration was performed by means of a cytotoxicity test on L929 cells as described previously^10, 3 hours after stimulation. […]

## COC(=O)c1ccccc1-c1ccc(/C=C2/SC(=S)N(Cc3ccccc3)C2=O)o1 [Molecule C-13, methyl 2-{5-[(3-benzyl-4-oxo-2-thioxo-1,3-thiazolidin-5-ylidene)methyl]-2-furyl}benzoate]
  association of PLC-γ with LAT: inhibited
